Source: patent publication US7064124B2, “NF-κB inhibitor containing substituted benzoic acid derivative as active ingredient” (Daiichi Suntory Pharma Co., Ltd., priority 2001, dated 2006)

Tested on: NF-κB
Assay: NF-κB luciferase reporter assay in A549/NF-κBLuc cells stimulated with IL-1β
Type: cell-based, human
Details: A549/NF-κBLuc cells; compound added 1 hour before IL-1β, then 3 hours incubation; luciferase activity; read-out: NF-κB Inhibitory Activity (IC50)
Method: Effect on Human Lung Cancer-Derived Cell A549 (A549/NF-κBluc) Containing Stably Introduced Luciferase Plasmid (pNFκB-Luc, Stratagene. U.S.A.) Regulated by NF-κB Binding Sequence
Using Lipofectamine (Lifetech Oriental, Tokyo), pNFκB-Luc and pSV2neo (Clontech, U.S.A.) were co-transfected into the A549 cell (ATCC CCL185) and G418 sulfate (1 mg/ml, Lifetech Oriental) was added to the culture medium to select cells containing stably introduced pNFκB-Luc A549/NF-κBLuc.
The compound obtained in Examples each was added to A549/NF-κBLuc and one hour after that, IL-1β capable of activating NF-κB was added. The incubation was further continued for 3 hours.
NF-κB Inhibitory Activity (IC50) of Substituted Benzoic Acid Derivitives: […]

Row | IC50 | SMILES
1 | 51 µM | COC1=C(OC)C(=O)C(Cc2ccc(OCc3ccncc3)c(C(=O)N3CCCCC3)c2)=C(C)C1=O [Example 95 (pTsOH)]

Same assay, conditions: Homo sapiens, A549, A549/NF-κBLuc cells; compound added 1 hour before IL-1β, then 3 hours incubation; luciferase activity; read-out: NF-κB Inhibitory Activity (IC50)

Row | SMILES | IC50
2 | COC1=C(OC)C(=O)C(Cc2cccc(C(=O)N3CCCCC3)c2OCc2ccccc2)=C(C)C1=O [Example 64, N-[3-(5,6-Dimethoxy-3-methyl-1,4-benzoquinon-2-yl)methyl-2-benzyloxybenzoyl]piperidine] | 33 µM
3 | COC1=C(OC)C(=O)C(Cc2ccc(OC(C)=O)c(C(=O)Nc3cccnc3N3CCOCC3)c2)=C(C)C1=O [Example 222, N-(2-Morpholinopyridin-3-yl)-5-(5,6-dimethoxy-3-methyl-1,4-benzoquinon-2-yl)methyl-2-acetoxybenzamide] | 77 µg/mL
4 | COC1=C(OC)C(=O)C(Cc2ccc(OC(C)=O)c(C(=O)Nc3ccc(N4CCOCC4)nc3)c2)=C(C)C1=O [Example 224, N-(6-Morpholinopyridin-3-yl)-5-(5,6-dimethoxy-3-methyl-1,4-benzoquinon-2-yl)methyl-2-acetoxybenzamide] | 24 µg/mL
5 | COC1=C(OC)C(=O)C(Cc2ccc(OCc3ccncc3)c(C(=O)N3CCCCC3)c2)=C(C)C1=O [Example 95, N-[5-(5,6-Dimethoxy-3-methyl-1,4-benzoquinon-2-yl)methyl-2-(4-pyridylmethyloxy)benzoyl]piperidine] | 35 µM
6 | COC1=C(OC)C(=O)C(Cc2cccc(C(=O)N3CCOCC3)c2OC(C)=O)=C(C)C1=O [Example 72, N-[3-(5,6-Dimethoxy-3-methyl-1,4-benzoquinon-2-yl)methyl-2-acetoxybenzoyl]morpholine] | 43 µM
7 | COC1=C(OC)C(=O)C(Cc2ccc(OCc3ccccc3)c(C(=O)N3CCCCC3)c2)=C(C)C1=O [Example 61, N-[5-(5,6-Dimethoxy-3-methyl-1,4-benzoquinon-2-yl)methyl-2-benzyloxybenzoyl]piperidine] | 31 µM
8 | COC(=O)c1cc(CC2=C(C)C(=O)C(OC)=C(OC)C2=O)ccc1OCC(=O)OC(C)(C)C [Example 130, Methyl 5-(5,6-Dimethoxy-3-methyl-1,4-benzoquinon-2-yl)methyl-2-(tert-butoxycarbonylmethyloxy)benzoate] | 59 µM
9 | COC1=C(OC)C(=O)C(Cc2ccc(OC(C)=O)c(C(=O)Nc3ccnc(Cl)c3)c2)=C(C)C1=O [Example 226, N-(2-Chloropyridin-4-yl)-5-(5,6-dimethoxy-3-methyl-1,4-benzoquinon-2-yl)methyl-2-acetoxybenzamide] | 19 µg/mL
10 | COC1=C(OC)C(=O)C(Cc2ccc(C(=O)N3CCCCC3)c(OCc3ccccc3)c2)=C(C)C1=O [Example 57, N-[4-(5,6-Dimethoxy-3-methyl-1,4-benzoquinon-2-yl)methyl-2-benzyloxybenzoyl]piperidine] | 29 µM
11 | COC1=C(OC)C(=O)C(Cc2ccc(OC(C)=O)c(C(=O)Nc3cccnc3)c2)=C(C)C1=O [Example 201, N-(Pyridin-3-yl)-5-(5,6-dimethoxy-3-methyl-1,4-benzoquinon-2-yl)methyl-2-acetoxybenzamide] | 16 µg/mL
12 | COC1=C(OC)C(=O)C(Cc2ccc(Oc3ccccc3)c(C(=O)N3CCOCC3)c2)=C(C)C1=O [Example 87, N-[5-(5,6-Dimethoxy-3-methyl-1,4-benzoquinon-2-yl)methyl-2-phenoxybenzoyl]morpholine] | 19 µM
13 | COC1=C(OC)C(=O)C(Cc2ccc(OC(C)=O)c(C(=O)Nc3ccc(OC)cc3)c2)=C(C)C1=O [Example 70, N-[5-(5,6-Dimethoxy-3-methyl-1,4-benzoquinon-2-yl)methyl-2-acetoxybenzoyl]-4-methoxyaniline] | 15 µM
14 | COC1=C(OC)C(=O)C(Cc2cccc(C(=O)Nc3ccc(OC)cc3)c2OC(C)=O)=C(C)C1=O [Example 73, N-[3-(5,6-Dimethoxy-3-methyl-1,4-benzoquinon-2-yl)methyl-2-acetoxybenzoyl]-4-methoxyaniline] | 31 µM
15 | COC1=C(OC)C(=O)C(Cc2ccc(OCc3cccnc3)c(C(=O)N3CCC(C)CC3)c2)=C(C)C1=O [Example 127, N-[5-(5,6-Dimethoxy-3-methyl-1,4-benzoquinon-2-yl)methyl-2-(3-pyridylmethyloxy)benzoyl]-4-methylpiperidine] | 24 µM
16 | COC1=C(OC)C(=O)C(Cc2cccc(C(=O)Nc3cccnc3)c2OC(C)=O)=C(C)C1=O [Example 206, N-(Pyridin-3-yl)-3-(5,6-dimethoxy-3-methyl-1,4-benzoquinon-2-yl)methyl-2-acetoxybenzamide] | 87 µg/mL
17 | COC1=C(OC)C(=O)C(Cc2cccc(C(=O)N3CCCCC3)c2O)=C(C)C1=O [Example 77, N-[3-(5,6-Dimethoxy-3-methyl-1,4-benzoquinon-2-yl)methyl-2-hydroxybenzoyl]piperidine] | 35 µM
18 | COC1=C(OC)C(=O)C(Cc2ccc(OC(C)=O)c(C(=O)Nc3ccc(C#N)cc3)c2)=C(C)C1=O [Example 111, N-[5-(5,6-Dimethoxy-3-methyl-1,4-benzoquinon-2-yl)methyl-2-acetoxybenzoyl]-4-cyanoaniline] | 25 µM
19 | COC1=C(OC)C(=O)C(Cc2cccc(C(=O)N3CCOCC3)c2O)=C(C)C1=O [Example 78, N-[3-(5,6-Dimethoxy-3-methyl-1,4-benzoquinon-2-yl)methyl-2-hydroxybenzoyl]morpholine] | 57 µM
20 | COC1=C(OC)C(=O)C(Cc2ccc(OCc3cccnc3)c(C(=O)N3CCCCC3)c2)=C(C)C1=O [Example 92, N-[5-(5,6-Dimethoxy-3-methyl-1,4-benzoquinon-2-yl)methyl-2-(3-pyridylmethyloxy)benzoyl]piperidine] | 49 µM
21 | COC1=C(OC)C(=O)C(Cc2ccc(OC(C)C)c(C(=O)N3CCOCC3)c2)=C(C)C1=O [Example 84, N-[5-(5,6-Dimethoxy-3-methyl-1,4-benzoquinon-2-yl)methyl-2-isopropoxybenzoyl]morpholine] | 63 µM
22 | COC1=C(OC)C(=O)C(Cc2cccc(C(=O)N3CCCCC3)c2OC(C)=O)=C(C)C1=O [Example 71, N-[3-(5,6-Dimethoxy-3-methyl-1,4-benzoquinon-2-yl)methyl-2-acetoxybenzoyl]piperidine] | 36 µM

Results, then the compound that gave them:

Row | IC50 | SMILES
23 | 45 µM | COC1=C(OC)C(=O)C(Cc2ccc(OCc3cccnc3)c(C(=O)Nc3ccc(OC)cc3)c2)=C(C)C1=O [Example 94, N-[5-(5,6-Dimethoxy-3-methyl-1,4-benzoquinon-2-yl)methyl-2-(3-pyridylmethyloxy)benzoyl]-4-methoxyaniline]
24 | 45 µM | COC1=C(OC)C(=O)C(Cc2ccc(Oc3cccc(OC)c3)c(C(=O)N3CCCCC3)c2)=C(C)C1=O [Example 89, N-[5-(5,6-Dimethoxy-3-methyl-1,4-benzoquinon-2-yl)methyl-2-(3-methoxyphenoxy)benzoyl]piperidine]
25 | 20 µg/mL | COC1=C(OC)C(=O)C(Cc2ccc(O)c(C(=O)N(C)c3ccc(OC)cc3)c2)=C(C)C1=O [Example 164, N-Methyl-[5-(5,6-dimethoxy-3-methyl-1,4-benzoquinon-2-yl)methyl-2-hydroxybenzoyl]-4-methoxyaniline]
26 | 20 µM | COC1=C(OC)C(=O)C(Cc2ccc(O)c(C(=O)Nc3ccc(Cl)cc3)c2)=C(C)C1=O [Example 117]
27 | 64 µM | COC1=C(OC)C(=O)C(Cc2ccc(O)c(C(=O)Nc3cc(C(F)(F)F)cc(C(F)(F)F)c3)c2)=C(C)C1=O [Example 121, N-[5-(5,6-Dimethoxy-3-methyl-1,4-benzoquinon-2-yl)methyl-2-hydroxybenzoyl]-3,5-bistrifluoromethylaniline]
28 | 82 µM | COC1=C(OC)C(=O)C(Cc2ccc(OC)c(C(=O)N3CCCCC3)c2)=C(C)C1=O [Example 80, N-[5-(5,6-Dimethoxy-3-methyl-1,4-benzoquinon-2-yl)methyl-2-methoxybenzoyl]piperidine]
29 | 19 µM | COC1=C(OC)C(=O)C(Cc2ccc(OCc3cccnc3)c(C(=O)Nc3cc(OC)c(OC)c(OC)c3)c2)=C(C)C1=O [Example 128, N-[5-(5,6-Dimethoxy-3-methyl-1,4-benzoquinon-2-yl)methyl-2-(3-pyridylmethyloxy)benzoyl]-3,4,5-trimethoxyaniline]
30 | 7 µM | COC1=C(OC)C(=O)C(Cc2ccc(O)c(C(=O)Nc3ccc(OC)cc3)c2)=C(C)C1=O [Example 76, N-[5-(5,6-Dimethoxy-3-methyl-1,4-benzoquinon-2-yl)methyl-2-hydroxybenzoyl]-4-methoxyaniline]
31 | 13 µM | COC1=C(OC)C(=O)C(Cc2ccc(O)c(C(=O)Nc3ccc(C#N)cc3)c2)=C(C)C1=O [Example 119, N-[5-(5,6-Dimethoxy-3-methyl-1,4-benzoquinon-2-yl)methyl-2-hydroxybenzoyl]-4-cyanoaniline]
32 | 48 µM | COC1=C(OC)C(=O)C(Cc2ccc(O)c(C(=O)Nc3cc(OC)c(OC)c(OC)c3)c2)=C(C)C1=O [Example 114, N-[5-(5,6-Dimethoxy-3-methyl-1,4-benzoquinon-2-yl)methyl-2-hydroxybenzoyl]-3,4,5-trimethoxyaniline]
33 | 65 µM | COC1=C(OC)C(=O)C(Cc2ccc(OC(C)C)c(C(=O)Nc3ccc(OC)cc3)c2)=C(C)C1=O [Example 85, N-[5-(5,6-Dimethoxy-3-methyl-1,4-benzoquinon-2-yl)methyl-2-isopropoxybenzoyl]-4-methoxyaniline]
34 | 27 µM | COC1=C(OC)C(=O)C(Cc2ccc(Oc3ccccc3)c(C(=O)N3CCCCC3)c2)=C(C)C1=O [Example 86, N-[5-(5,6-Dimethoxy-3-methyl-1,4-benzoquinon-2-yl)methyl-2-phenoxybenzoyl]piperidine]
